Results on three compounds are retold here after ChEMBL document CHEMBL4251641, “Biotin conjugated organic molecules and proteins for cancer therapy: A review” (Eur J Med Chem, 2018).

Structures are written as SMILES. Where a SMILES comes first, the peptide text is derived from it. Bridges are numbered along the chain shown (N, C = ends).

Data set [1] can be described thus: Cytotoxicity against mouse L1210FR cells assessed as cell growth inhibition after 72 hrs by MTT assay. The class given is functional, cell-based.
A further data set deals with L1210. Description: Cytotoxicity against mouse L1210 cells assessed as cell growth inhibition after 72 hrs by MTT assay. Type of data set: functional, cell-based. As to conditions: L1210, 72 h. In general terms: Tetrazolium assays rely on reduction of a dye to a coloured formazan, in cell work by metabolically active cells.
Another data set concerns WI-38. Put plainly: Cytotoxicity against human WI38 cells assessed as cell growth inhibition after 72 hrs by MTT assay. The class given is cell-based. The note with it: WI-38, 72 h.
Data set [2] is described as follows: Selectivity ratio of IC50 for human WI38 cells to IC50 for mouse L1210FR cells. Type of data set: toxicity. The note with it: WI38 cells and L1210FR cells, read-out: Ratio IC50.
Data set [3] in a line: Selectivity ratio of IC50 for mouse L1210 cells to IC50 for mouse L1210FR cells. Type of data set: functional.
Data set [4] in a line: Inhibition of high-voltage activated calcium channel (unknown origin) expressed in NG108-15 cells at -90 mV holding potential by whole cell patch clamp assay. Type of data set: cell-based. As to conditions: Homo sapiens.
A short description of data set [5]: Half life in human plasma. The class given is ADME, cell-free.

Turning to `CC(=O)O[C@@]12CO[C@@H]1C[C@H](O)[C@@]1(C)C(=O)[C@H](OC(=O)C3CC3)C3=C(C)[C@@H](OC(=O)[C@H](OC(=O)Cc4ccccc4SSCCC(=O)NNC(=O)CCCC[C@@H]4SC[C@@H]5NC(=O)N[C@@H]54)[C@H](C=C(C)C)NC(=O)OC(C)(C)C)C[C@@](O)([C@@H](OC(=O)c4ccccc4)[C@H]21)C3(C)C`, the IC50 was 0.0088 µM in data set [1], 0.522 µM with L1210 and 0.57 µM in the data set on WI-38. The selectivity ratio in data set [2] was found to be 65. Moreover, in data set [3], the “Ratio IC50” value came out at 59.
`CC(C)C[C@H](NC(=O)[C@H](CCCCN)NC(=O)[C@H](Cc1c[nH]c2ccccc12)NC(=O)[C@H](CCCCN)NC(=O)[C@@H]1CSSC[C@@H]2NC(=O)[C@H](CCC(=O)O)NC(=O)[C@H](CC(N)=O)NC(=O)[C@H](CCCCN)NC(=O)CNC(=O)[C@@H]3CCCN3C(=O)[C@H]([C@@H](C)O)NC(=O)[C@@H]3CSSC[C@H](NC(=O)[C@H](C(C)C)NC(=O)[C@H](CCCNC(=N)N)NC(=O)[C@H](CC(N)=O)NC(=O)[C@@H]4CCCN4C(=O)[C@H](CSSC[C@H](NC(=O)[C@H](C)N)C(=O)N[C@@H](CCCCN)C(=O)NCC(=O)N[C@@H](C(C)C)C(=O)N[C@@H](Cc4ccccc4)C(=O)N[C@@H](CC(=O)O)C(=O)N[C@@H](C)C(=O)N3)NC2=O)C(=O)N[C@@H](CO)C(=O)N[C@@H](CC(=O)O)C(=O)N[C@@H](CCCCN)C(=O)N[C@@H](Cc2cnc[nH]2)C(=O)N[C@@H](CCCCN)C(=O)N[C@@H](Cc2c[nH]c3ccccc23)C(=O)N1)C(=O)O` (H-ACKGVFDACTPGKNECCPNRVCSDKHKWCKWKL-OH; disulfide 2-17, 9-22, 16-29): the EC50 in data set [4] came to 0.1 µM.
In data set [5], `Nc1ccn([C@@H]2O[C@H](CO)[C@@H](O)C2(F)F)c(=O)n1` [GEMCITABINE] displayed a half-life of 9 to 13 min.

As a reminder, the IC50 is the point on the concentration scale where inhibition reaches its midpoint. As usually defined, the EC50 is the concentration giving half of the maximal effect. Usually half-life stands for how long it takes for the measured level to halve.
